Four compounds from publication PMC4383003, “Transfer hydrogenation catalysis in cells as a new approach to anticancer drug design” (Nature Communications, 2015) can be followed below.

Several values for one entry are separate records, joined by “and”; a condition that tells them apart may be missing. Equal entries are not always repeated.

The subject of data set [1] is A2780 ovarian cancer cells. The data set is described as follows: Ruthenium accumulation in cancer cells (ICP-MS). The format is cell-based, human. The conditions noted are these: for Cell Ru: A2780, 1/3 x IC50, 24 h drug exposure, no recovery time; for Cell accum.: A2780, 24 h, 1/3 x IC50. The protocol:
Briefly, 1.5 × 10^6 cells per well were seeded on a six-well plate. […] After this time, cells were washed, treated with trypsin-EDTA, counted and cell pellets were collected. Each pellet was digested overnight in concentrated nitric acid (73%) at 353 K; the resulting solutions were diluted using double-distilled water to give a final concentration of 5% HNO3 and the amount of Ru taken up by the cells was determined by ICP–MS. […]
Supplementary Table 3: Antiproliferative activity of complexes 1-8 in A2780 ovarian cancer cells and their cellular accumulation (expressed as ng Ru per million cells).
The latter experiments were carried out using equipotent concentrations of the […]
experiments were performed as duplicates of triplicates in independent experiments and the error bars were calculated as the standard deviation from the mean. […]

A further data set has as its system 9-ethylguanine. Description: Binding to model nucleobase 9-ethylguanine by 1H NMR. The note with it: D2O, pH* 7.2 ± 0.1, 310 K. The protocol: Supplementary Table 4: Binding constants for formation of 9-EtG adducts of complexes 1-4 determined by 1H NMR. The experiments were performed in D2O, pH* 7.2 ± 0.1 and 310 K. Equilibrium was reached by the time the first 1H NMR spectrum was recorded (< 10 min). […]
DNA is believed to be the main target for [(bip)Ru(en)Cl]+ (8). Due to the structural similarity of the complexes 1-5 with complex 8, their binding to DNA was […]
Interaction with nucleobases
Initially, model nucleobases, 9-ethylguanine and 9-methyladenine were reacted with complexes 1-4 in D2O, 310 K and pH* 7.2 ± 0.1. The binding of the complexes to 9-EtG or 9-MeA was monitored by 1H-NMR spectroscopy. Peaks for the 9-EtG adducts were observed by the time the first spectrum was recorded (< 5 min after mixing), […]
equilibrium was reached rapidly. The binding constants for formation of 9-EtG adducts determined by NMR were between 60 and 106 mM-1 (Supplementary Table 4). These values are in the same range as that from the ethylenediamine complex [(bip)Ru(en)Cl]+ (K9-EtG= 60.3 mM-1),2 which also binds strongly to DNA.3, 4 The high resolution mass spectrum confirmed the formation of [(η6-arene)Ru(XEn)(9-EtG)]+ (Supplementary Table 5). The interaction of complexes 1-4 with 9-MeA was also investigated, but no reaction was detected by 1H-NMR.
It is well established that N7 of guanine is the preferred nucleotide binding site for many transition metals ions. 2-8 Furthermore, strong and selective binding to N7 of 9-EtG, has been observed for [(η6-arene)Ru(en)Cl]+.3, 4 A pH* titration of […]

Data set [2] deals with A2780 ovarian cancer cells. The data set is described as follows: Cell viability on co-administration of Ru complexes (1/3 x IC50) with formate or acetate. The data set is classed as cell-based, human. The conditions noted are these: for Cell viability: A2780, complex 1/3 x IC50, 24 h. The protocol:
Cell viability assays were carried out with complexes 1–8 in A2780 ovarian cancer cells. These experiments were carried out as described above with the following modifications: a fixed concentration of each Ru complex equal to 1/3 × IC50 was used in co-administration with three different concentrations of sodium formate or sodium acetate (0.5, 1.0 and 2.0 mM). To prepare the stock solution of the drug, the complex was dissolved in 5% dimethylsulfoxide and diluted in a 1:1 mixture of 0.9% saline:cell culture medium. This stock was further diluted using RPMI-1640 until working concentrations were achieved. Separately, stock solutions of sodium formate or sodium acetate were prepared in saline. The complex and formate were added to each well independently, but within 5 min of each other.
Supplementary Table 7: Percent cell viability of A2780 ovarian cancer cells exposed to equipotent concentrations of ruthenium complexes 1-3 and 5-8 (1/3 x […]
The experiments included 48 h of pre-incubation and 72 h of drug recovery, both in drug-free medium at 310 K in a 5% CO2 humidified atmosphere. All the experiments were performed as duplicates of triplicates in independent experiments and the error bars were calculated as the standard deviation from the mean.
Supplementary Table 11: Cell viability (%) of A2780 ovarian cancer cells exposed […]
administered with different concentrations of sodium acetate (0, 0.5, 1 and 2 mM).
The experiments involved 48 h of pre-incubation and 72 h of drug recovery, both in […]
Cell viability percentages (%)
Complex Acetate concentration (mM)

Data set [3] is described as follows: pKa* of aqua adducts of the complexes. The note with it: pKa value determined in deuterated solvent. The format is physicochemical. The text has this:
Table 1 pKa* values for aqua adducts of catalysts 1–4 (and 8 for comparison) and turnover frequencies for transfer hydrogenation of NAD^+ using formate. | column: pKa*

For data set [4], the system named is A2780 human ovarian cancer cells. Description: In vitro growth inhibition assay (SRB), A2780. The data set is classed as cell-based. The conditions noted are these: A2780, Supplementary Table 3. On the procedure: A2780 human ovarian carcinoma and MRC5 human fetal lung fibroblasts were obtained from the European Collection of Cell Cultures. Both cell lines were grown in Roswell Park Memorial Institute medium (RPMI-1640) supplemented with 10% of fetal calf serum, 1% of 2 mM glutamine and 1% penicillin/streptomycin. All cells were grown as adherent monolayers at 310 K in a 5% CO2-humidified atmosphere and passaged at ca. 70–80% confluency.
The antiproliferative activity of complexes 1–8 was determined in A2780 ovarian cancer cells and MRC5 fibroblasts. Briefly, 96-well plates were used to seed 5,000 cells per well. The plates were left to pre-incubate with drug-free medium at 310 K for 48 h before adding different concentrations of the compounds to be tested. A drug exposure period of 24 h was allowed. After this, supernatants were removed by suction and each well was washed with PBS. A further 72 h were allowed for the cells to recover in drug-free medium at 310 K. The sulforhodamine B (SRB) assay was used to determine cell viability. IC50 values, as the concentration that causes 50% cell death, were determined as duplicates of triplicates in two independent sets of experiments and their s.d. were calculated.

Data set [5] is described as follows: Transfer hydrogenation of NAD+ to 1,4-NADH with formate, followed by 1H NMR. The note with it: for TOF D2O/MeOH-d4: 23% MeOH-d4/77% D2O; for TOF D2O/MeOH-d4 / TOF D2O: NAD+ 2 mol equiv, formate 25 mol equiv, 310 K, pH* 7.2. The protocol: Complexes 1–7 were dissolved in MeOH-d4/D2O (5:1 v/v, 1.4 mM, 4 ml). Solutions of sodium formate (35 mM, 4 ml) and NAD^+ in D2O (2.8 mM, 2 ml) were also prepared and incubated at 310 K. In a typical experiment, 200-μl aliquots of each solution were added to a 5-mm NMR tube and the pH* adjusted to 7.2±0.1 (total volume 0.635 ml, final concentrations: Ru complex 0.44 mM; NAD^+ 0.88 mM; formate 11.02 mM; molar ratio 1:2:25). ^1H NMR spectra were recorded at 310 K every 162 s until the completion of the reaction.
Molar ratios of NAD^+ and NADH were determined by integrating the peaks at 9.33 and 6.96 p.p.m. (NAD^+ and 1,4-NADH, respectively). The turnover number for the reaction was calculated as follows: […]
where In is the integral of the signal at n p.p.m. and [NAD^+]0 is the concentration of NAD^+ at the start of the reaction.

Data set [6] is described as follows: pH* titration of the 9-EtG adduct (1H NMR). The format is physicochemical. The note with it: protonation/deprotonation of N1 of coordinated 9-EtG, H8 chemical shift versus pH*. The text has this:
[(p-cym)Ru(TsEn)(9-EtG)]+ was used to confirm that the complex binds to N7. A plot
of the chemical shift of H8 from bound 9-EtG (Supplementary Figure 3), versus pH*
from coordinated 9-EtG and therefore we conclude that the binding of complex 2 to […]

For `CS(=O)(=O)[N-]CCN.Cc1ccc(C(C)C)cc1.[Cl-].[Ru+2]` [Complex 1, [(p-cym)Ru(MsEn)Cl]], in data set [1], the “Cell Ru” value is on record as 0.16 ± 0.02 ng x 106 cells and the Cell accum. came out at 0.16 ng Ru/10^6 cells. Besides, in the data set on 9-ethylguanine, the “Binding constant for formation of 9-EtG adducts” value (“Binding constant for formation” for short) was found to be 105.4 ± 2.3 mM⁻¹. In data set [2] (formate 0.5 mM), the Cell viability came out at 61± 1%. The Cell viability in data set [2] (formate 1 mM) worked out at 40.0 ± 0.4%. For the same compound, in data set [2] (formate 2 mM), the Cell viability is 1.5 ± 0.1% and ~1%. For the same compound, the “decrease in cell survival” value in data set [2] (A2780, formate increased from 0 to 2 mM) was “ca. 50 fold”. Further, the “pKa*” value in data set [3] is 9.86±0.01. This compound returned an IC50 in data set [4] of 11.9 ± 0.8 µM. In addition, in data set [5], the “TOF D2O/MeOH-d4” value is 1.25 ± 0.03 h⁻¹ and the “TOF D2O” value was found to be 1.11 ± 0.02 h⁻¹.

In the case of `Cc1ccc(C(C)C)cc1.NCC[N-]S(=O)(=O)c1ccc(C(F)(F)F)cc1.[Cl-].[Ru+2]` [Complex 3, [(p-cym)Ru(TfEn)Cl]], the “Cell Ru” value in data set [1] amounted to 0.31 ± 0.04 ng x 106 cells. The Cell accum. in data set [1] amounted to 0.31 ng Ru/10^6 cells. The “Binding constant for formation” value with 9-ethylguanine was 60.5 ± 6.0 mM⁻¹. The Cell viability in data set [2] (formate 0 mM) is reported as 71 ± 2%; in data set [2] (formate 0.5 mM), 60± 2%; in data set [2] (formate 1 mM), 39.4 ± 2.0%; in data set [2] (formate 2 mM), 19 ± 2%. The “pKa*” value in data set [3] came to 9.71±0.01. For the same compound, the half-inhibitory concentration (IC50) in data set [4] is 14.2 ± 0.8 µM. The “TOF D2O/MeOH-d4” value in data set [5] came to 5.7 ± 0.3 h⁻¹. For the same compound, the “TOF D2O” value in data set [5] was 3.06 ± 0.05 h⁻¹.

Regarding `Cc1ccc(C(C)C)cc1.NCC[N-]S(=O)(=O)c1ccc([N+](=O)[O-])cc1.[Cl-].[Ru+2]` [Complex 4, [(p-cym)Ru(NO2En)Cl]], the “Binding constant for formation” value with 9-ethylguanine worked out at 92.8 ± 1.0 mM⁻¹. In addition, in data set [3], the “pKa*” value worked out at 9.56±0.04. In data set [4], the IC50 turned out to be 14.7 ± 0.6 µM. In data set [5] (6 mol equiv of NAD+), the “time for completion of the catalytic reaction” value was found to be 20.5 min. In data set [5], the “TOF D2O/MeOH-d4” value worked out at 9.6 ± 0.3 h⁻¹ and the “TOF D2O” value turned out to be 4.1 ± 0.1 h⁻¹.

As to `CCn1cnc2c(=O)[nH]c(N)nc21.Cc1ccc(C(C)C)cc1.Cc1ccc(S(=O)(=O)[N-]CCN)cc1.[Ru+2]` [[(p-cym)Ru(TsEn)(9-EtG)]+], in data set [6], the “pKa*” value amounted to 8.77.

A word on the IC50: it is the concentration at which inhibition is half-maximal. A lower IC50 goes with greater potency in that assay.
